Assay results from US8906952B2, “Indole derivative or pharmaceutically acceptable salt thereof, preparation method thereof, and pharmaceutical composition for preventing or treating metabolic diseases containing same as active ingredient” (Korea Research Institute of Bioscience and Biotechnology, priority 2011, dated 2014).

Experiments:
Type in all cases: biochemical
human DGAT1 = target: T1, human DGAT1 (Homo sapiens, UniProt O75907); assay: DGAT enzyme inhibition test, hDGAT1 enzyme from sf9 insect cells; conditions: enzyme from sf9 cells overexpressing hDGAT1; read-out: hDGAT-1 (sf9) IC50
T1 construct: made in house; host or cells: sf9 insect cells
T1 sequence (O75907 1-488): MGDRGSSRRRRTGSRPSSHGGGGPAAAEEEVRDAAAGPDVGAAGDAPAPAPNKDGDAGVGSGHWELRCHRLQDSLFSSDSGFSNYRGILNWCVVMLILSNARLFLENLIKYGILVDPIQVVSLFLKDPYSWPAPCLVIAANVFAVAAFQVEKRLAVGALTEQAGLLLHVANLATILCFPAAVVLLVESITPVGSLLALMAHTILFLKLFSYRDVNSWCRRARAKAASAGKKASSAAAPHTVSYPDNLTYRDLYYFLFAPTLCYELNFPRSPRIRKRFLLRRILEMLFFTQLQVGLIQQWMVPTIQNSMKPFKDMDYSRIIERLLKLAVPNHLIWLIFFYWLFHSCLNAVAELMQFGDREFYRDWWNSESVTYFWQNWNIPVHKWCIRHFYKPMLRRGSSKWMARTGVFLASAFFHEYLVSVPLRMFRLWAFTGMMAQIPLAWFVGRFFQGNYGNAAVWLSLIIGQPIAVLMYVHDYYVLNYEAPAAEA
Text: (§1) To investigate inhibitory effect of the compounds of Examples 1-33 against DGAT enzyme activity, DGAT enzyme inhibition and DGAT2 selectivity were investigated using zymogen including:
1) hDGAT1 and hDGAT2 enzymes, derived from insect cell overexpressing human DGAT1 and DGAT2 (‘sf9’), respectively,
(§2) To be specific, for the purpose of measuring human-derived DGAT enzyme inhibitory activity, using the zymogen, including enzymes derived from insect cell overexpressing human DGAT1 and DGAT2 (‘sf9’), microsomal protein isolated from human duodenal adenocarcinoma (‘Hutu 80’), and microsomal protein isolated from rat, and according to Coleman et al., (Methods Enzymol., 98-103, 1992), and substrate including 1,2-diacylglycerol(Sigma, D0138) and [^14C]palmitoyl-CoA (Amersham, CFA583), the amount of radiation of [^14C]triacylglycerol produced after enzymatic reaction was measured.
(§3) To be more specific, to the reaction solution containing 175 mM Tris-HCl (pH 8.0), 20 μl bovine serum albumin (10 mg/ml), 100 mM magnesium chloride, 30 μM [^14C]palmitoyl CoA (0.02 μCi, Amersham) and 200 μM 1,2-dioleoylglycerol, reagent dissolved in dimethylsulfoxide (10.0 μl) was added. After introducing 100 to 200 μg isolated microsomal protein and allowing the same to react at 25° C. for 10 min, the reaction was stopped by adding 1.5 ml stop solution (2-propanol:heptane:water=80:20:2, v:v:v). To isolate the product of the reaction (i.e., [^14C]triacylglycerol), 1 ml heptane and 0.5 ml distilled water were added and then decocted. After taking 1 ml supernatant, 2 ml alkaline ethanol solution (ethanol:0.5 N sodium hydroxide:water=50:10:40, v:v:v) were added and then decocted. After taking 0.65 ml supernatant from the decoction, the amount of radiation was measured with liquid scintillation counter (LSC). The DGAT inhibitory activity was calculated with Mathematical Expression 1 below:
(§4) T denotes cpm of experimental group in which the enzymatic reaction solution was treated with the sample,
(§5) C denotes cpm of control group in which the enzymatic reaction solution was not treated with the sample, and
(§6) B denotes cpm of control group treated with the sample without zymogen.

hDGAT-1 (HuTu 80) = target: T2, hDGAT-1 (HuTu 80) (Homo sapiens, UniProt O75907); assay: DGAT enzyme inhibition test, microsomal protein from human duodenal adenocarcinoma (Hutu 80); conditions: microsomal protein from HuTu 80
T2 construct: microsomal protein isolated from human duodenal adenocarcinoma (‘Hutu 80’); endogenous in cells; host or cells: HuTu 80 human duodenal adenocarcinoma cells (microsomes)
T2 sequence (O75907 1-488): T1 sequence (O75907 1-488)
Text: as §1
2) DGAT enzyme derived from human duodenal adenocarcinoma (‘Hutu 80’), and
as §2, §3, §4, §5, §6

DGAT-1 (rat liver) = target: T3, DGAT-1 (rat liver) (Rattus norvegicus, UniProt Q9ERM3); assay: DGAT enzyme inhibition test, rat liver-derived DGAT enzyme; conditions: rat liver microsomal protein
T3 construct: microsomal protein isolated from rat; from tissue; host or cells: rat liver microsomes
T3 sequence (Q9ERM3 1-498): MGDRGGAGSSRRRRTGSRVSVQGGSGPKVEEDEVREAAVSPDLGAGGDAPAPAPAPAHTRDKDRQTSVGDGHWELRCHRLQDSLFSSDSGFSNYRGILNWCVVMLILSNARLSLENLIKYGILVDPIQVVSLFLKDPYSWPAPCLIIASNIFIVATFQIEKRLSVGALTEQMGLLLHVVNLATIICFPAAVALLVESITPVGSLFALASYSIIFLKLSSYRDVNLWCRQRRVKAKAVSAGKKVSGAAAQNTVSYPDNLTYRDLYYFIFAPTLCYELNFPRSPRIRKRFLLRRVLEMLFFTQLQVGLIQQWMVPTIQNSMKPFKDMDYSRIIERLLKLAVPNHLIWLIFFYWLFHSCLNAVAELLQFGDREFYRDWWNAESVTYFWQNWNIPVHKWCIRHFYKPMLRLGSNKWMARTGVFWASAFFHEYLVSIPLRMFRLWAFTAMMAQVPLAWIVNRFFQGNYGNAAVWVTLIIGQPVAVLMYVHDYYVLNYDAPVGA
Text: as §1
3) rat liver-derived DGAT enzyme.
as §2, §3, §4, §5, §6

| Compound | IC50 (human DGAT1) | IC50 (hDGAT-1 (HuTu 80)) | IC50 (DGAT-1 (rat liver)) |
| --- | --- | --- | --- |
| CC(C)(C)OC(=O)n1cc(/C=C/C(=O)NNS(=O)(=O)c2ccccc2)c2ccccc21 [Example 17, (E)-tert-butyl 3-(3-oxo-3-(2-(phenylsulfonyl)hydrazinyl)prop-1-enyl)-1H-indole-1-carboxylate] | > 100 µM | > 100 µM | 83.6 µM |
| COC(=O)COc1cccc(C(=O)NN(C(=O)/C=C/c2cn(C(=O)OC(C)(C)C)c3ccccc23)C(C)C)c1 [Example 18, (E)-tert-butyl 3-(3-(1-isopropyl-2-(3-(2-methoxy-2-oxoethoxy)benzoyl)hydrazinyl)-3-oxoprop-1-enyl)-1H-indole-1-carboxylate] | > 100 µM | 3.2 µM | 20.3 µM |
| CC(C)N(NC(=O)c1cccc(OCC(=O)O)c1)C(=O)/C=C/c1cn(C(=O)OC(C)(C)C)c2ccccc12 [Example 19, (E)-2-(3-(2-(3-(1-(tert-butoxycarbonyl)-1H-indol-3-yl)acryloyl)-2-isopropylhydrazinecarbonyl)phenoxy)acetic acid] | > 100 µM | > 100 µM | 45.5 µM |
| CC(C)N(NC(=O)c1cccc(OCC(N)=O)c1)C(=O)/C=C/c1cn(C(=O)OC(C)(C)C)c2ccccc12 [Example 20, (E)-tert-butyl 3-(3-(2-(3-(2-amino-2-oxoethoxy)benzoyl)-1-isopropylhydrazinyl)-3-oxoprop-1-enyl)-1H-indole-1-carboxylate] | > 100 µM | 73.3 µM | > 100 µM |
| CC(C)N(NC(=O)c1ccccc1)C(=O)CCc1cn(Cc2ccccc2)c2ccccc12 [Example 21, N′-(3-(1-benzyl-1H-indol-3-yl)propanoyl)-N′-isopropylbenzohydrazide] | > 100 µM | 29.6 µM | 29.1 µM |
| CC(C)N(NC(=O)c1ccccc1)C(=O)/C=C/c1c[nH]c2ccccc12 [Example 22, (E)-N′-(3-(1H-indol-3-yl)acryloyl)-N′-isopropylbenzohydrazide] | > 100 µM | 44.6 µM | 33 µM |
| CC(C)N(NC(=O)c1ccccc1)C(=O)CCc1c[nH]c2ccccc12 [Example 23, N′-(3-(1H-indol-3-yl)propanoyl)-N′-isopropylbenzohydrazide] | 95.1 µM | 25.8 µM | 31.4 µM |
| CC(C)N(NC(=O)c1ccccc1)C(=O)CCc1cn(C(=O)OC(C)(C)C)c2ccccc12 [Example 24, tert-butyl 3-(3-(2-benzoyl-1-isopropylhydrazinyl)-3-oxopropyl)-1H-indole-1-carboxylate] | > 100 µM | 9.2 µM | 8.6 µM |
| CC(C)N(NC(=O)c1ccccc1)C(=O)/C=C/c1cn(C)c2ccccc12 [Example 25] | 28.3 µM | 29.2 µM | 9.3 µM |
| CC(C)N(NC(=O)c1ccccc1)C(=O)/C=C/c1cn(CC2CC2)c2ccccc12 [Example 28, (E)-N′-(3-(1-(cyclopropylmethyl)-1H-indol-3-yl)acryloyl)-N′-isopropylbenzohydrazide] | 41.6 µM | 8.1 µM | 2.9 µM |
| CC(C)N(NC(=O)c1ccccc1)C(=O)/C=C/c1cn(C2CC2)c2ccccc12 [Example 29, (E)-N′-(3-(1-cyclopropyl-1H-indol-3-yl)acryloyl)-N′-isopropylbenzohydrazide] | 24.6 µM | 4.6 µM | 1.9 µM |
| CC(=O)n1cc(/C=C/C(=O)N(NC(=O)c2ccccc2)C(C)C)c2ccccc21 [Example 30, (E)-N′-(3-(1-acetyl-1H-indol-3-yl)acryloyl)-N′-isopropylbenzohydrazide] | 65.3 µM | 27 µM | 22.5 µM |

These reach a lower IC50 (human DGAT1). Values come first.

| IC50 (human DGAT1) | IC50 (hDGAT-1 (HuTu 80)) | IC50 (DGAT-1 (rat liver)) | Compound |
| --- | --- | --- | --- |
| 13.6 µM | 2.9 µM | 2.4 µM | CC(C)N(NC(=O)c1ccccc1)C(=O)/C=C/c1cn(Cc2ccccc2)c2ccccc12 [Example 26, (E)-N′-(3-(1-benzyl-1H-indol-3-yl)acryloyl)-N′-isopropylbenzohydrazide] |
| 11.8 µM | 2.6 µM | 0.5 µM | CC(C)=CCn1cc(/C=C/C(=O)N(NC(=O)c2ccccc2)C(C)C)c2ccccc21 [Example 27, (E)-N′-isopropyl-N′-(3-(1-(3-methylbut-2-enyl)-1H-indol-3-yl)acryloyl)benzohydrazide] |
| 9.3 µM | 5.1 µM | 3.4 µM | CC(C)N(NC(=O)c1ccccc1)C(=O)/C=C/c1cn(C(=O)C(C)(C)C)c2ccccc12 [Example 31, (E)-N′-isopropyl-N′-(3-(1-pivaloyl-1H-indol-3-yl)acryloyl)benzohydrazide] |
| 5.7 µM | 0.97 µM | 0.7 µM | CC(C)N(NC(=O)c1ccccc1)C(=O)/C=C/c1cn(C(=O)c2ccccc2)c2ccccc12 [Example 32, (E)-N′-(3-(1-benzoyl-1H-indol-3-yl)acryloyl)-N′-isopropylbenzohydrazide] |
| 5.3 µM | 2.1 µM | 1.4 µM | CC(C)N(NC(=O)c1ccccc1)C(=O)/C=C/c1cn(C(=O)CC(C)(C)C)c2ccccc12 [Example 33, (E)-N′-(3-(1-(3,3-dimethylbutanoyl)-1H-indol-3-yl)acryloyl)-N′-isopropylbenzohydrazide] |
